Source: patent US20230135894A1, “MK2 DEGRADERS AND USES THEREOF” (Kymera Therapeutics, Inc., priority 2021, published 2023)

Legend:
MK2 [1] = target: T1, MK2 (Homo sapiens, UniProt P49137); experiment: MK2 degradation in human THP-1 monocytic cells (MSD, 24 h); type: cell-based; design: endogenous in cells; details: for Dmax: THP-1, THP-1 cells; for DC50: THP-1 cells, read-out: MK2 MSD THP-1 degradation 24 h GMean External Abs DC50
In short: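 Readout: residual MK2 protein in THP-1 lysates, measured by MSD electrochemiluminescence sandwich assay after 24 h compound exposure (≤10-point serial dilutions, 0.1% DMSO, 37 °C). Curves normalised between lysis-buffer and DMSO-cell signals; DC50 by 4-parameter logistic fit.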

MK2 [2] = target: T1, MK2; experiment: MK2 degradation in human SW1353 cells (MSD, 24 h); type: cell-based; design: endogenous in cells; host or cells: SW-1353 (ATCC HTB-94); key to MK2 MSD SW 1353 24 h Dmax %: —: “-”=not tested or inactive; details: for Dmax: read-out: MK2 MSD SW 1353 24 h Dmax %; for DC50: read-out: MK2 MSD SW1353 degradation 24 h GMean External Abs DC50
In short: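 DC50 derived by 4-parameter logistic fit, with DMSO-treated signal as top and lysis-buffer signal as bottom. Remaining MK2 was measured by MSD electrochemiluminescent sandwich assay in RIPA lysates of human SW1353 cells exposed for 24 h at 37 °C to serially diluted compound in 0.1% DMSO.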

T1 sequence (P49137 whole entry): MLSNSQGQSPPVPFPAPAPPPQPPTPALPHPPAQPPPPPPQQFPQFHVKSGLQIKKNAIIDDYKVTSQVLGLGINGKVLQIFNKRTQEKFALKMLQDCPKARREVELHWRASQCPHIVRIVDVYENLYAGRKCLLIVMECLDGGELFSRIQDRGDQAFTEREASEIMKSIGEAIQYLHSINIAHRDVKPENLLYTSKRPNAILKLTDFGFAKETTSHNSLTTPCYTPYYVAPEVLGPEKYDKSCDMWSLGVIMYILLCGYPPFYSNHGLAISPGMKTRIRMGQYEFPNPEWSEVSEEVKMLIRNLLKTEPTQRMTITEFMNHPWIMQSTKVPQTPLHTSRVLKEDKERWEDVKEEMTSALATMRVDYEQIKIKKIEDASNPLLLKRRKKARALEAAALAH

| Structure (SMILES) | Dmax (MK2 [1]) | DC50 (MK2 [1]) | Dmax (MK2 [2]) | DC50 (MK2 [2]) | MK2 MSD SW 1353 24 h Dmax % (MK2 [2]) |
| --- | --- | --- | --- | --- | --- |
| C[C@@H]1CNc2c(sc3ccc4nc(-c5ccnc(N6CCN(CCCc7ccc8c(c7)n(C)c(=O)n8C7CCC(=O)NC7=O)CC6)c5)ccc4c23)C(=O)N1 (stereo partly shown) [Compound I-275] | > 75% | < 1 nM | > 75% | < 1 nM |  |
| C[C@@H]1CNc2c(sc3ccc4nc(-c5ccnc(N6CCN(CC7CCN(c8cccc9c8n(C)c(=O)n9C8CCC(=O)NC8=O)CC7)CC6)c5)ccc4c23)C(=O)N1 (stereo partly shown) [Compound I-276] | > 75% | 1 to 10 nM | > 75% | 1 to 10 nM |  |
| C[C@@H]1CNc2c(sc3ccc4nc(-c5ccnc(N6CCC(CN7CCN(c8ccc9c(c8)n(C)c(=O)n9C8CCC(=O)NC8=O)CC7)CC6)c5)ccc4c23)C(=O)N1 (stereo partly shown) [Compound I-277] | > 75% | < 1 nM | > 75% | < 1 nM |  |
| C[C@@H]1CNc2c(sc3ccc4nc(-c5ccnc(N6CCN(CC7CCN(c8ccc9c(c8)n(C)c(=O)n9C8CCC(=O)NC8=O)CC7)CC6)c5)ccc4c23)C(=O)N1 (stereo partly shown) [Compound I-278] | > 75% | < 1 nM | > 75% | < 1 nM |  |
| C[C@@H]1CNc2c(sc3ccc4nc(-c5ccc(N6CCN(CCc7ccc8c(c7)n(C)c(=O)n8C7CCC(=O)NC7=O)CC6)nc5)ccc4c23)C(=O)N1 (stereo partly shown) [Compound I-279] | > 75% | < 1 nM | > 75% | < 1 nM |  |
| C[C@@H]1CNc2c(sc3ccc4nc(-c5ccc(N6CCN(CCc7ccc8c(c7)n(C)c(=O)n8C7CCC(=O)NC7=O)CC6)cc5)ccc4c23)C(=O)N1 (stereo partly shown) [Compound I-280] | > 75% | < 1 nM | > 75% | < 1 nM |  |
| C[C@@H]1CNc2c(sc3ccc4nc(-c5cnc(N6CCN(CC7CCN(c8cccc9c8n(C)c(=O)n9C8CCC(=O)NC8=O)CC7)CC6)nc5)ccc4c23)C(=O)N1 (stereo partly shown) [Compound I-281] | > 75% | < 1 nM | > 75% | 1 to 10 nM |  |
| C[C@@H]1CNc2c(sc3ccc4nc(-c5cnc(N6CCN(CC7CCN(c8ccc9c(c8)n(C)c(=O)n9C8CCC(=O)NC8=O)CC7)CC6)nc5)ccc4c23)C(=O)N1 (stereo partly shown) [Compound I-282] | > 75% | < 1 nM | > 75% | < 1 nM |  |
| Cc1nc(N2CCN(CC3CCN(c4ccc5c(c4)n(C)c(=O)n5C4CCC(=O)NC4=O)CC3)CC2)ccc1-c1ccc2c(ccc3sc4c(c32)NC[C@@H](C)NC4=O)n1 (stereo partly shown) [Compound I-283] | > 75% | < 1 nM | > 75% | < 1 nM |  |
| C[C@@H]1CNc2c(sc3ccc4nc(-c5cc(N6CCC(CN7CCC(c8cccc9c8n(C)c(=O)n9C8CCC(=O)NC8=O)CC7)CC6)ccc5F)ccc4c23)C(=O)N1 (stereo partly shown) [Compound I-284] | > 75% | 1 to 10 nM | > 75% | 1 to 10 nM |  |
| C[C@@H]1CNc2c(sc3ccc4nc(-c5cc(N6CCC(CN7CCN(c8cccc9c8n(C)c(=O)n9C8CCC(=O)NC8=O)CC7)CC6)ccc5F)ccc4c23)C(=O)N1 (stereo partly shown) [Compound I-285] | > 75% | 1 to 10 nM | > 75% | 1 to 10 nM |  |
| C[C@@H]1CNc2c(sc3ccc4nc(-c5cc(N6CCN(CCCCCCCCc7cccc8c7n(C)c(=O)n8C7CCC(=O)NC7=O)CC6)ccc5F)ccc4c23)C(=O)N1 (stereo partly shown) [Compound I-286] | 50 to 75% | 10 to 100 nM | > 75% | 10 to 100 nM |  |
| C[C@@H]1CNc2c(sc3ccc4nc(-c5ccc(N6CCN(CCCc7ccc8c(c7)n(C)c(=O)n8C7CCC(=O)NC7=O)CC6)nc5)ccc4c23)C(=O)N1 (stereo partly shown) [Compound I-287] | > 75% | < 1 nM | > 75% | < 1 nM |  |
| C[C@@H]1CNc2c(sc3ccc4nc(-c5ccc(N6CCN(CCCc7cccc8c7n(C)c(=O)n8C7CCC(=O)NC7=O)CC6)nc5)ccc4c23)C(=O)N1 (stereo partly shown) [Compound I-288] | > 75% | < 1 nM | > 75% | < 1 nM |  |
| C[C@@H]1CNc2c(sc3ccc4nc(-c5ccc(N6CCN(CC7CCN(c8ccc9c(c8)n(C)c(=O)n9C8CCC(=O)NC8=O)CC7)CC6)cc5F)ccc4c23)C(=O)N1 (stereo partly shown) [Compound I-289] | > 75% | < 1 nM | > 75% | 1 to 10 nM |  |
| C[C@@H]1Cc2[nH]c(-c3ccnc(-c4ccc(N5CCN(CC6CCN(c7cccc8c7n(C)c(=O)n8C7CCC(=O)NC7=O)CC6)CC5)cc4)c3)cc2C(=O)N1 (stereo partly shown) [Compound I-290] | > 75% | < 1 nM | > 75% | 1 to 10 nM |  |

| Structure (SMILES) | Dmax (MK2 [1]) | DC50 (MK2 [1]) | Dmax (MK2 [2]) | DC50 (MK2 [2]) | MK2 MSD SW 1353 24 h Dmax % (MK2 [2]) |
| --- | --- | --- | --- | --- | --- |
| Cc1cc(N2CCC(CN3CCC(c4ccc5c(c4)n(C)c(=O)n5C4CCC(=O)NC4=O)CC3)CC2)ccc1-c1ccc2c(ccc3sc4c(c32)NC[C@@H](C)NC4=O)n1 (stereo partly shown) [Compound I-291] | > 75% | < 1 nM | > 75% | < 1 nM |  |
| C[C@@H]1CNc2c(sc3ccc4nc(-c5ccc(N6CCC(CN7CCN(c8ccc9c(c8)n(C)c(=O)n9C8CCC(=O)NC8=O)CC7)CC6)cc5Cl)ccc4c23)C(=O)N1 (stereo partly shown) [Compound I-292] | > 75% | < 1 nM | > 75% | 1 to 10 nM |  |
| C[C@@H]1CNc2c(sc3ccc4nc(-c5cccc(N6CCC7(CC6)CN(CCCCCCc6cccc8c6n(C)c(=O)n8C6CCC(=O)NC6=O)C7)c5)ccc4c23)C(=O)N1 (stereo partly shown) [Compound I-293] | > 75% | < 1 nM | > 75% | 10 to 100 nM |  |
| C[C@@H]1CNc2c(sc3ccc4nc(-c5ccc(N6CCC7(CC6)CN(CCCCCCc6cccc8c6n(C)c(=O)n8C6CCC(=O)NC6=O)C7)cc5)ccc4c23)C(=O)N1 (stereo partly shown) [Compound I-294] | > 75% | < 1 nM | > 75% | 1 to 10 nM |  |
| O=C1CCC(N2Cc3cc(N4CCN(CC5CCN(c6ccc(-c7cc(-c8cc9c([nH]8)CCNC9=O)ccn7)c(F)c6)CC5)CC4)ccc3C2=O)C(=O)N1 (stereo not shown) [Compound I-295] | 50 to 75% | 10 to 100 nM | > 75% | 10 to 100 nM |  |
| C[C@@H]1CNc2c(sc3ccc4nc(-c5cccc(C6CCN(CCN7CCC(CCc8cccc9c8n(C)c(=O)n9C8CCC(=O)NC8=O)CC7)CC6)c5)ccc4c23)C(=O)N1 (stereo partly shown) [Compound I-296] |  | 1 to 10 nM |  | 10 to 100 nM | — |
| C[C@@H]1CNc2c(sc3ccc4nc(-c5ccc(N6CCC(CN7CCC(c8ccc9c(c8)n(C)c(=O)n9C8CCC(=O)NC8=O)CC7)CC6)cc5F)ccc4c23)C(=O)N1 (stereo partly shown) [Compound I-297] | > 75% | < 1 nM | > 75% | < 1 nM |  |
| Cc1cc(N2CCC(CN3CCN(c4ccc5c(c4)n(C)c(=O)n5C4CCC(=O)NC4=O)CC3)CC2)ccc1-c1ccc2c(ccc3sc4c(c32)NC[C@@H](C)NC4=O)n1 (stereo partly shown) [Compound I-298] | > 75% | < 1 nM | > 75% | < 1 nM |  |
| C[C@@H]1CNc2c(sc3ccc4nc(-c5ccc(N6CCC(CN7CCC(c8cccc9c8n(C)c(=O)n9C8CCC(=O)NC8=O)CC7)CC6)cc5F)ccc4c23)C(=O)N1 (stereo partly shown) [Compound I-299] | > 75% | < 1 nM | > 75% | < 1 nM |  |
| Cn1c(=O)n(C2CCC(=O)NC2=O)c2cccc(CCCCCCN3CCC4(CC3)CNC(=O)c3c4[nH]c4c3CCc3cnc(-c5ccccc5F)cc3-4)c21 (stereo not shown) [Compound I-300] | < 50% | > 100 nM | < 50% | > 100 nM |  |
| O=C1CCC(N2Cc3cc(N4CCN(CC5CCN(c6ccc(F)c(-c7cc(-c8cc9c([nH]8)CCNC9=O)ccn7)c6)CC5)CC4)ccc3C2=O)C(=O)N1 (stereo not shown) [Compound I-301] | < 50% | > 100 nM | < 50% | > 100 nM |  |
| C[C@@H]1CNc2c(sc3ccc4nc(-c5ccc(N6CCN(CC7CCN(c8ccc9c(c8)CN(C8CCC(=O)NC8=O)C9=O)CC7)CC6)cc5)ccc4c23)C(=O)N1 (stereo partly shown) [Compound I-302] | > 75% | 1 to 10 nM | > 75% | 1 to 10 nM |  |
| C[C@@H]1CNc2c(sc3ccc4nc(-c5cccc(N6CCN(CC7CCN(c8ccc9c(c8)CN(C8CCC(=O)NC8=O)C9=O)CC7)CC6)c5)ccc4c23)C(=O)N1 (stereo partly shown) [Compound I-303] | > 75% | < 1 nM | > 75% | 1 to 10 nM |  |
| C[C@@H]1CNc2c(sc3ccc4nc(-c5cccc(N6CCC(CN7CCN(c8ccc9c(c8)CN(C8CCC(=O)NC8=O)C9=O)CC7)CC6)c5)ccc4c23)C(=O)N1 (stereo partly shown) [Compound I-304] | > 75% | 1 to 10 nM | > 75% | 1 to 10 nM |  |
| Cn1c(=O)n(C2CCC(=O)NC2=O)c2ccc(C3CCN(CC4CCN(c5ccc(-c6cc(-c7cc8c([nH]7)CCNC8=O)ccn6)c(F)c5)CC4)CC3)cc21 (stereo not shown) [Compound I-305] | > 75% | < 1 nM | > 75% | < 1 nM |  |
| C[C@@H]1CNc2c(sc3ccc4nc(-c5ccc(N6CCC(CN7CCN(c8ccc9c(c8)n(C)c(=O)n9C8CCC(=O)NC8=O)CC7)CC6)cc5F)ccc4c23)C(=O)N1 (stereo partly shown) [Compound I-306] | > 75% | < 1 nM | > 75% | < 1 nM |  |
